Results taken from patent publication US11945796B2, “Substituted pyridine derivatives as SARM1 inhibitors” (Nura Bio, Inc., priority 2020, dated 2024).
Like-named read-outs stand apart in the source and are kept apart here.

Target: T1, human SARM1(50-724) (Homo sapiens, UniProt Q6SZW1)
T1 construct: 40 nM human SARM1(50-724)
T1 sequence (Q6SZW1 50-724): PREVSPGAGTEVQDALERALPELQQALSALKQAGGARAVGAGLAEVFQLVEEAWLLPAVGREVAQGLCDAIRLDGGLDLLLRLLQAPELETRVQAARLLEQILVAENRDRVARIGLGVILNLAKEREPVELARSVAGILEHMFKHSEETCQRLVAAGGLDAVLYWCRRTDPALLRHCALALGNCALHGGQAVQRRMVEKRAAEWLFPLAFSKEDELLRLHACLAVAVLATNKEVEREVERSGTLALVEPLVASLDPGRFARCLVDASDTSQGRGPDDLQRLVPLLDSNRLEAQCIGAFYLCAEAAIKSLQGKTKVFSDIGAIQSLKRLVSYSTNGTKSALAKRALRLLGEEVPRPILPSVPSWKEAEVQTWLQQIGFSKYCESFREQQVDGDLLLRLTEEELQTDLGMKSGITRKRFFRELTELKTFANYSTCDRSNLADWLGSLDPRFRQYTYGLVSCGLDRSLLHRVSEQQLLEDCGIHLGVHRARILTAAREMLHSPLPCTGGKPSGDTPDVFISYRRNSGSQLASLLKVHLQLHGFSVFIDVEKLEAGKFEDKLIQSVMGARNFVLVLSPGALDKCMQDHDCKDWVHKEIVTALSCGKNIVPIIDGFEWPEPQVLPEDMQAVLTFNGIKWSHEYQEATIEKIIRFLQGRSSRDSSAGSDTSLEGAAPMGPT
Experiment: SARM1 NADase biochemical assay (HPLC peak areas of NAD and NAM)
Conditions: for IC50: dose-response, 1:3 serial dilution from 100 μM, 40 nM SARM1, 0.3 mM NMN, 20 μM NAD, 60 min rt
Experimental: The reaction was incubated at room temperature for 60 minutes and quenched with 20 μL of 0.4% formic acid. […] Total run time for each sample was 4 minutes. […] Samples were run at a flow rate of 0.8 mL/min at 55° C. Peak areas of NAD and NAM were determined using OpenLAB CDS (Chem Station edition) software. For dose-response, the compound was diluted serially 1:3 in DMSO and added to the reaction starting at a final compound concentration of 100 μM in 1% DMSO.

[1] = 50 μM compound, NAD peak area, read-out: Avg NAD % inhibition at 50 μM
[2] = 50 μM compound, NAM peak area, read-out: Avg NAM % inhibition at 50 μM
[3] = read-out: Avg NAD % inhibition at 50 μM
[4] = read-out: Avg NAM % inhibition at 50 μM

| Compound | IC50 | inhibition at 50 µM [1] | inhibition at 50 µM [2] | also measured |
| --- | --- | --- | --- | --- |
| CC(c1ccncc1)c1nn(CC(F)(F)F)cc1F (racemic) [Example 22, (rac)-4-(1-(4-Fluoro-1-(2,2,2-trifluoroethyl)-1H-pyrazol-3-yl)ethyl)pyridine] | 1 to 10 µM | – | – | – |
| COc1ccc(C(=O)Nc2ccn(Cc3ccncc3)n2)cc1 [Example 42, 4-Methoxy-N-(1-(pyridin-4-ylmethyl)-1H-pyrazol-3-yl)benzamide] | – | 0 to 50% | 0 to 50% | – |
| CCNc1ccn(Cc2ccncc2)n1 [Example 85, N-Ethyl-1-(pyridin-4-ylmethyl)-1H-pyrazol-3-amine] | – | – | – | inhibition at 50 µM [3]: 0 to 50%; inhibition at 50 µM [4]: 0 to 50% |
| O=C(Nc1ccn(Cc2ccncc2)n1)c1ccccn1 [Example 61, N-(1-(Pyridin-4-ylmethyl)-1H-pyrazol-3-yl)picolinamide] | – | 0 to 50% | 0 to 50% | – |
| O=C(Nc1ccn(Cc2ccncc2)n1)c1ccc2c(c1)CCO2 [Example 39, N-(1-(Pyridin-4-ylmethyl)-1H-pyrazol-3-yl)-2,3-dihydrobenzofuran-5-carboxamide] | – | 0 to 50% | 0 to 50% | – |
| O=S(=O)(Nc1ccn(Cc2ccncc2)n1)c1cccc(F)c1 [Example 76, 3-Fluoro-N-(1-(pyridin-4-ylmethyl)-1H-pyrazol-3-yl)benzenesulfonamide] | 1 to 10 µM | 0 to 50% | 0 to 50% | – |
| O=C(Nc1ccn(Cc2ccncc2)n1)c1ccccc1F [Example 58, 2-Fluoro-N-(1-(pyridin-4-ylmethyl)-1H-pyrazol-3-yl)benzamide] | – | 0 to 50% | 0 to 50% | – |
| Cc1cnccc1Cn1ccc(NCC(F)(F)F)n1 [Example 84, 1-((3-Methylpyridin-4-yl)methyl)-N-(2,2,2-trifluoroethyl)-1H-pyrazol-3-amine] | 10 to 100 µM | – | – | – |
| FCCNc1ccn(Cc2ccncc2)n1 [Example 96, N-(2-Fluoroethyl)-1-(pyridin-4-ylmethyl)-1H-pyrazol-3-amine] | – | – | – | inhibition at 50 µM [3]: 51 to 100%; inhibition at 50 µM [4]: 51 to 100% |
| CCC(c1ccncc1)n1ccc(NCC(F)(F)F)n1 (racemic) [Example 99, (rac)-1-(1-(Pyridin-4-yl)propyl)-N-(2,2,2-trifluoroethyl)-1H-pyrazol-3-amine] | 10 to 100 µM | – | – | – |
| [2H]C(C)(c1ccncc1)c1ccn(CC(F)(F)F)n1 (racemic) [Example 82, (rac)-4-(1-(1-(2,2,2-Trifluoroethyl)-1H-pyrazol-3-yl)ethyl-1-d)pyridine] | < 1 µM | – | – | – |
| FC(F)Cn1ccc(Cc2ccncc2)n1 [Example 10, 4-((1-(2,2-Difluoroethyl)-1H-pyrazol-3-yl)methyl)pyridine] | 1 to 10 µM | – | – | – |
| CC(c1ccncc1)n1ccc(NCC(F)F)n1 (racemic) [Example 101, (rac)-N-(2,2-Difluoroethyl)-1-(1-(pyridin-4-yl)ethyl)-1H-pyrazol-3-amine] | < 1 µM | – | – | – |
| O=C(Nc1ccn(Cc2ccncc2)n1)c1cccc(Cl)c1 [Example 54, 3-Chloro-N-(1-(pyridin-4-ylmethyl)-1H-pyrazol-3-yl)benzamide] | 10 to 100 µM | – | – | – |
| Fc1cn(Cc2ccncc2)nc1CC(F)(F)F (racemic) [Example 104, 4-{[4-Fluoro-3-(2,2,2-trifluoroethyl)-1H-pyrazol-1-yl]methyl}pyridine] | 1 to 10 µM | – | – | – |
| c1cc(Cn2ccc(Nc3nccs3)n2)ccn1 [Example 4, N-(1-(Pyridin-4-ylmethyl)-1H-pyrazol-3-yl)thiazol-2-amine] | 1 to 10 µM | – | – | – |
| (S)—N-(2,2-Difluoroethyl)-1-(1-(pyridin-4-yl)ethyl)-1H-pyrazol-3-amine and (R)—N-(2,2-Difluoroethyl)-1-(1-(pyridin-4-yl)ethyl)-1H-pyrazol-3-amine [Example 8a] | – | – | – | Avg NAD % inhibition at 50 μM (50 μM compound, NAD peak area): * (% Inhibition 0-50%); Avg NAM % inhibition at 50 μM (50 μM compound, NAM peak area): * (% Inhibition 0-50%) |
| C[C@H](c1ccn(CC(F)(F)F)n1)c1ccncc1Cl (single isomer, unassigned) [Example 113a] | 1 to 10 µM | – | – | – |
| FC(c1ccncc1)c1ccn(CC(F)(F)F)n1 (racemic) [Example 79, (rac)-4-(Fluoro(1-(2,2,2-trifluoroethyl)-1H-pyrazol-3-yl)methyl)pyridine] | 10 to 100 µM | – | – | – |

| Compound | IC50 | inhibition at 50 µM [1] | inhibition at 50 µM [2] | also measured |
| --- | --- | --- | --- | --- |
| Cc1cccc(C(=O)Nc2ccn(Cc3ccncc3)n2)c1 [Example 49, 3-Methyl-N-(1-(pyridin-4-ylmethyl)-1H-pyrazol-3-yl)benzamide] | – | 0 to 50% | 0 to 50% | – |
| (R)-2-((1-(1-(Pyridin-4-yl)ethyl)-1H-pyrazol-3-yl)amino)acetonitrile and (S)-2-((1-(1-(pyridin-4-yl)ethyl)-1H-pyrazol-3-yl)amino)acetonitrile [Example 6] | 1 to 10 µM | – | – | – |
| CC(c1ccncc1)n1ccc(NCC#N)n1 (racemic) [Example 5, (rac)-2-((1-(1-(Pyridin-4-yl)ethyl)-1H-pyrazol-3-yl)amino)acetonitrile] | 1 to 10 µM | – | – | – |
| O=C(Nc1ccn(Cc2ccncc2)n1)c1ccc2c(c1)OCCO2 [Example 37, N-(1-(Pyridin-4-ylmethyl)-1H-pyrazol-3-yl)-2,3-dihydrobenzo[b][1,4]dioxine-6-carboxamide] | – | 0 to 50% | 0 to 50% | – |
| N#CCn1ccc(Cc2ccncc2)n1 [Example 9, 2-(3-(Pyridin-4-ylmethyl)-1H-pyrazol-1-yl)acetonitrile] | 1 to 10 µM | – | – | – |
| O=C(Nc1ccn(Cc2ccncc2)n1)C(C(F)(F)F)C(F)(F)F [Example 15, 3,3,3-trifluoro-N-(1-(pyridin-4-ylmethyl)-1H-pyrazol-3-yl)-2-(trifluoromethyl)propanamide] | 1 to 10 µM | – | – | – |
| O=C(Nc1ccn(Cc2ccncc2)n1)c1ccccc1O [Example 47, 2-Hydroxy-N-(1-(pyridin-4-ylmethyl)-1H-pyrazol-3-yl)benzamide] | – | 0 to 50% | 0 to 50% | – |
| CC(c1ccncc1)c1ccn(Cc2ccccc2)n1 (racemic) [Example 92, (rac)-4-(1-(1-Benzyl-1H-pyrazol-3-yl)ethyl)pyridine] | 10 to 100 µM | – | – | – |
| COc1ccc(C(=O)Nc2ccn(Cc3ccncc3)n2)s1 [Example 64, 5-Methoxy-N-(1-(pyridin-4-ylmethyl)-1H-pyrazol-3-yl)thiophene-2-carboxamide] | – | 0 to 50% | 0 to 50% | – |
| (R)-4-(1-(1-(2,2-Difluoroethyl)-1H-pyrazol-3-yl)ethyl-2,2,2-d3)pyridine and (S)-4-(1-(1-(2,2-Difluoroethyl)-1H-pyrazol-3-yl)ethyl-2,2,2-d3)pyridine [Example 114] | – | – | – | Avg NAD % inhibition at 50 μM (50 μM compound, NAD peak area): * (% Inhibition 0-50%); Avg NAM % inhibition at 50 μM (50 μM compound, NAM peak area): * (% Inhibition 0-50%) |
| (R)-3-Chloro-4-(1-(1-(2,2,2-trifluoroethyl)-1H-pyrazol-3-yl)ethyl)pyridine and (S)-3-Chloro-4-(1-(1-(2,2,2-trifluoroethyl)-1H-pyrazol-3-yl)ethyl)pyridine [Example 113] | 1 to 10 µM | – | – | – |
| O=C(CCc1cc(F)ccc1F)Nc1ccn(Cc2ccncc2)n1 [Example 33, 3-(2,5-Difluorophenyl)-N-(1-(pyridin-4-ylmethyl)-1H-pyrazol-3-yl)propanamide] | > 100 µM | 51 to 100% | 51 to 100% | – |
| O=C(Nc1ccn(Cc2ccncc2)n1)C(F)(F)F [Example 68, 2,2,2-Trifluoro-N-(1-(pyridin-4-ylmethyl)-1H-pyrazol-3-yl)acetamide] | 10 to 100 µM | – | – | – |
| Cc1ccccc1C(=O)Nc1ccn(Cc2ccncc2)n1 [Example 48, 2-Methyl-N-(1-(pyridin-4-ylmethyl)-1H-pyrazol-3-yl)benzamide] | – | 0 to 50% | 0 to 50% | – |
| C[C@H](c1ccncc1)n1ccc(NCC(F)(F)F)n1 [Example 89, (R)-1-(1-(Pyridin-4-yl)ethyl)-N-(2,2,2-trifluoroethyl)-1H-pyrazol-3-amine] | 10 to 100 µM | – | – | – |
| CNc1ccn(Cc2ccncc2)n1 [Example 86, N-Methyl-1-(pyridin-4-ylmethyl)-1H-pyrazol-3-amine] | – | 0 to 50% | 0 to 50% | – |
| O=C(Nc1ccn(Cc2ccncc2)n1)c1cccc(F)c1 [Example 59, 3-Fluoro-N-(1-(pyridin-4-ylmethyl)-1H-pyrazol-3-yl)benzamide] | – | 0 to 50% | 0 to 50% | – |
| (R)-4-(1-(1-(2,2-Difluoroethyl)-1H-pyrazol-3-yl)ethyl-2,2,2-d3)pyridine and (S)-4-(1-(1-(2,2-Difluoroethyl)-1H-pyrazol-3-yl)ethyl-2,2,2-d3)pyridine [Example 114a] | 1 to 10 µM | – | – | – |
